Data reported in patent US12139499B2, “Heteroaryl compounds for treating Huntington's disease” (PTC THERAPEUTICS, INC., priority 2018, dated 2024).

system: Endogenous Huntingtin Protein; assay: Endogenous Huntingtin Protein Assay (ELISA-based MSD electrochemiluminescence); format: cell-based; details: Table 1
How it was run: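 Huntingtin was captured overnight at 4 °C on plates coated with 1 μg/mL MW1 (polyQ-expanded) or MAB2166 antibody and BSA-blocked. Detection used a rabbit monoclonal and then a SULFO-TAG goat anti-rabbit antibody (0.25 μg/mL, 1 h each, room temperature). Signal was read by electrochemiluminescence.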

Row | SMILES | IC50 [nM]
1 | Cc1cn2nc(-c3cc(F)c4nc(C5CCNCC5)sc4c3)cc(CC(=O)O)c2n1 [Compound 221, {6-[4-fluoro-2-(piperidin-4-yl)-1,3-benzothiazol-6-yl]-2-methylimidazo[1,2-b]pyridazin-8-yl]acetic acid] | ≤ 100
2 | Cc1cn2cc(-c3cc4sc(NC5CC(C)(C)NC(C)(C)C5)nc4cn3)cc(C#N)c2n1 [Compound 222, 2-methyl-6-{2-[(2,2,6,6-tetramethylpiperidin-4-yl)amino][1,3]thiazolo[4,5-c]pyridin-6-yl]imidazo[1,2-a]pyridine-8-carbonitrile] | ≤ 100
3 | Cc1cn2cc(-c3cc4sc(OC5CC6CCC(C5)N6)nc4cn3)cc(C#N)c2n1 (stereo not drawn) [Compound 223, 6-{2-[(3-exo)-8-azabicyclo[3.2.1]oct-3-yloxy][1,3]thiazolo[4,5-c]pyridin-6-yl}-2-methylimidazo[1,2-a]pyridine-8-carbonitrile] | 100 to 500
4 | Cc1cn2nc(-c3cc(F)c4nc(C5CCNCC5)sc4c3)cc(C(N)=O)c2n1 [Compound 224, 6-[4-fluoro-2-(piperidin-4-yl)-1,3-benzothiazol-6-yl]-2-methylimidazo[1,2-b]pyridazine-8-carboxamide] | ≤ 100
5 | Cc1cn2cc(-c3cc(F)c4nc(N(C)C5CCNCC5)sc4c3)cc2c(C)n1 [Compound 225, 6-(1,3-dimethylpyrrolo[1,2-a]pyrazin-7-yl)-4-fluoro-N-methyl-N-(piperidin-4-yl)-1,3-benzothiazol-2-amine] | ≤ 100
6 | Cc1cn2cc(-c3cc(F)c4nc(N(C)C5CCNCC5)sc4c3)cc(C#N)c2n1 [Compound 226, 6-{4-fluoro-2-[methyl(piperidin-4-yl)amino]-1,3-benzothiazol-6-yl}-2-methylimidazo[1,2-a]pyridine-8-carbonitrile] | ≤ 100
7 | Cc1cn2cc(-c3ncc4nc(N(C)C5C6CCC5CNC6)sc4n3)cc(F)c2n1 (stereo not drawn) [Compound 227, N-[(8-anti)-3-azabicyclo[3.2.1]oct-8-yl]-5-(8-fluoro-2-methylimidazo[1,2-a]pyridin-6-yl)-N-methyl[1,3]thiazolo[5,4-d]pyrimidin-2-amine] | 1000 to 3000
8 | Cc1cn2cc(-c3ncc4nc(N(C)C5C6CCC5CNC6)sc4n3)cc(C#N)c2n1 (stereo not drawn) [Compound 228, 6-{2-[(8-anti)-3-azabicyclo[3.2.1]oct-8-yl(methyl)amino][1,3]thiazolo[5,4-d]pyrimidin-5-yl}-2-methylimidazo[1,2-a]pyridine-8-carbonitrile] | 500 to 1000
9 | Cc1cn2cc(-c3cc(F)c4nc(C5CCNCC5)sc4c3)nc2c(C)n1 [Compound 229, 2-[4-fluoro-2-(piperidin-4-yl)-1,3-benzothiazol-6-yl]-6,8-dimethylimidazo[1,2-a]pyrazine] | ≤ 100
10 | Cc1cn2nc(-c3cc(F)c4nc(C5CCNCC5)sc4c3)cc(C#N)c2n1 [Compound 230, 6-[4-fluoro-2-(piperidin-4-yl)-1,3-benzothiazol-6-yl]-2-methylimidazo[1,2-b]pyridazine-8-carbonitrile] | ≤ 100
11 | Cc1cn2nc(-c3cc(F)c4nc(N(C)C5CCNCC5)sc4c3)cc(C#N)c2n1 [Compound 231, 6-{4-fluoro-2-[methyl(piperidin-4-yl)amino]-1,3-benzothiazol-6-yl}-2-methylimidazo[1,2-b]pyridazine-8-carbonitrile] | ≤ 100
12 | Cn1cc2cc(-c3cc4sc(NC5CC(C)(C)NC(C)(C)C5)nc4cn3)cc(F)c2n1 [Compound 232, 6-(7-fluoro-2-methyl-2H-indazol-5-yl)-N-(2,2,6,6-tetramethylpiperidin-4-yl)[1,3]thiazolo[4,5-c]pyridin-2-amine] | ≤ 100
13 | Cn1cc2cc(-c3cc4sc(NC5CC(C)(C)NC(C)(C)C5)nc4cn3)cc(C#N)c2n1 [Compound 233, 2-methyl-5-{2-[(2,2,6,6-tetramethylpiperidin-4-yl)amino][1,3]thiazolo[4,5-c]pyridin-6-yl}-2H-indazole-7-carbonitrile] | ≤ 100
14 | Cc1cn2cc(-c3cc4sc(NC5CC(C)(C)NC(C)(C)C5)nc4cn3)cc(F)c2n1 [Compound 234, 6-(8-fluoro-2-methylimidazo[1,2-a]pyridin-6-yl)-N-(2,2,6,6-tetramethylpiperidin-4-yl)[1,3]thiazolo[4,5-c]pyridin-2-amine] | ≤ 100
15 | Cc1cn2nc(-c3cc(F)c4nc(N(C)C5CC6CCC(C5)N6)sc4c3)cc(C#N)c2n1 (stereo not drawn) [Compound 235, 6-{2-[(3-exo)-8-azabicyclo[3.2.1]oct-3-yl(methyl)amino]-4-fluoro-1,3-benzothiazol-6-yl}-2-methylimidazo[1,2-b]pyridazine-8-carbonitrile] | ≤ 100
16 | Cc1cn2nc(-c3cc(F)c4nc(N(C)C5CC6CCC(C5)N6)sc4c3)cc(C(N)=O)c2n1 (stereo not drawn) [Compound 236, 6-{2-[(3-exo)-8-azabicyclo[3.2.1]oct-3-yl(methyl)amino]-4-fluoro-1,3-benzothiazol-6-yl}-2-methylimidazo[1,2-b]pyridazine-8-carboxamide] | ≤ 100

Row | SMILES | IC50 [nM]
17 | CN(c1nc2c(F)cc(-c3ccc4nn(C)cc4n3)cc2s1)C1CC2CCC(C1)N2 (stereo not drawn) [Compound 237, N-[(3-exo)-8-azabicyclo[3.2.1]oct-3-yl]-4-fluoro-N-methyl-6-(2-methyl-2H-pyrazolo[4,3-b]pyridin-5-yl)-1,3-benzothiazol-2-amine] | 100 to 500
18 | CN(c1nc2cnc(-c3cc(C#N)c4nn(C)cc4c3)cc2s1)[C@@H]1C[C@H]2CC[C@@H](C1)N2C [Compound 238, 2-methyl-5-(2-{methyl[(3-exo)-8-methyl-8-azabicyclo[3.2.1]oct-3-yl]amino}[1,3]thiazolo[4,5-c]pyridin-6-yl)-2H-indazole-7-carbonitrile] | ≤ 100
19 | Cc1cn2cc(-c3cc4sc(N(C)[C@@H]5C[C@H]6CC[C@@H](C5)N6C)nc4cn3)cc(F)c2n1 [Compound 239, 6-(8-fluoro-2-methylimidazo[1,2-a]pyridin-6-yl)-N-methyl-N-[(3-exo)-8-methyl-8-azabicyclo[3.2.1]oct-3-yl][1,3]thiazolo[4,5-c]pyridin-2-amine] | 100 to 500
20 | Cc1cn2cc(-c3cc4sc(N(C)[C@@H]5C[C@H]6CC[C@@H](C5)N6C)nc4cn3)cc(C#N)c2n1 [Compound 240, 2-methyl-6-(2-{methyl[(3-exo)-8-methyl-8-azabicyclo[3.2.1]oct-3-yl]amino}[1,3]thiazolo[4,5-c]pyridin-6-yl)imidazo[1,2-a]pyridine-8-carbonitrile] | 100 to 500
21 | CN(c1nc2cnc(-c3cc(F)c4nn(C)cc4c3)cc2s1)[C@@H]1C[C@H]2CC[C@@H](C1)N2C [Compound 241, 6-(7-fluoro-2-methyl-2H-indazol-5-yl)-N-methyl-N-[(3-exo)-8-methyl-8-azabicyclo[3.2.1]oct-3-yl][1,3]thiazolo[4,5-c]pyridin-2-amine] | 100 to 500
22 | CCN(c1nc2cnc(-c3cc(C#N)c4nc(C)cn4c3)nc2s1)C1CC(C)(C)NC(C)(C)C1 [Compound 242, 6-{2-[ethyl(2,2,6,6-tetramethylpiperidin-4-yl)amino][1,3]thiazolo[5,4-d]pyrimidin-5-yl)-2-methylimidazo[1,2-a]pyridine-8-carbonitrile] | 100 to 500
23 | CCN(c1nc2cnc(-c3cc(F)c4nc(C)cn4c3)nc2s1)C1CC(C)(C)NC(C)(C)C1 [Compound 243, N-ethyl-5-(8-fluoro-2-methylimidazo[1,2-a]pyridin-6-yl)-N-(2,2,6,6-tetramethylpiperidin-4-yl)[1,3]thiazolo[5,4-d]pyrimidin-2-amine] | 100 to 500
24 | CN1[C@@H]2CC[C@H]1C[C@H](Nc1nc3cnc(-c4cc(C#N)c5nn(C)cc5c4)cc3s1)C2 [Compound 244, 2-methyl-5-(2-{[(3-exo)-8-methyl-8-azabicyclo[3.2.1]oct-3-yl]amino][1,3]thiazolo[4,5-c]pyridin-6-yl)-2H-indazole-7-carbonitrile] | 1000 to 3000
25 | Cc1cn2cc(-c3cc4sc(N[C@@H]5C[C@H]6CC[C@@H](C5)N6C)nc4cn3)cc(C#N)c2n1 [Compound 245, 2-methyl-6-(2-{[(3-exo)-8-methyl-8-azabicyclo[3.2.1]oct-3-yl]amino][1,3]thiazolo[4,5-c]pyridin-6-yl)imidazo[1,2-a]pyridine-8-carbonitrile] | 1000 to 3000
26 | CN1[C@@H]2CC[C@H]1C[C@H](Nc1nc3cnc(-c4cc(F)c5nn(C)cc5c4)cc3s1)C2 [Compound 246, 6-(7-fluoro-2-methyl-2H-indazol-5-yl)-N-[(3-exo)-8-methyl-8-azabicyclo[3.2.1]oct-3-yl][1,3]thiazolo[4,5-c]pyridin-2-amine] | 1000 to 3000
27 | Cc1cn2cc(-c3cc4sc(N[C@@H]5C[C@H]6CC[C@@H](C5)N6C)nc4cn3)cc(F)c2n1 [Compound 247, 6-(8-fluoro-2-methylimidazo[1,2-a]pyridin-6-yl)-N-[(3-exo)-8-methyl-8-azabicyclo[3.2.1]oct-3-yl][1,3]thiazolo[4,5-c]pyridin-2-amine] | 100 to 500
28 | Cc1cn2nc(-c3cc(F)c4nc(N(C)C5CNC5)sc4c3)cc(C)c2n1 [Compound 248, N-(azetidin-3-yl)-6-(2,8-dimethylimidazo[1,2-b]pyridazin-6-yl)-4-fluoro-N-methyl-1,3-benzothiazol-2-amine] | 100 to 500
29 | Cc1cc2nc(-c3cc(F)c4nc(C5CCNCC5)sc4c3)ccn2n1 [Compound 249, 5-[4-fluoro-2-(piperidin-4-yl)-1,3-benzothiazol-6-yl]-2-methylpyrazolo[1,5-a]pyrimidine] | ≤ 100
30 | Cc1cc2nc(-c3cc(F)c4nc(N(C)C5CCNCC5)sc4c3)ccn2n1 [Compound 250, 4-fluoro-N-methyl-6-(2-methylpyrazolo[1,5-a]pyrimidin-5-yl)-N-(piperidin-4-yl)-1,3-benzothiazol-2-amine] | 100 to 500
31 | Cc1cn2cc(-c3cc4sc(N(C)C5CC6CCCC(C5)N6)nc4cn3)cc(C#N)c2n1 (centres unmarked) [Compound 251, 6-{2-[9-azabicyclo[3.3.1]non-3-yl(methyl)amino][1,3]thiazolo[4,5-c]pyridin-6-yl}-2-methylimidazo[1,2-a]pyridine-8-carbonitrile] | ≤ 100
32 | CN(c1nc2cnc(-c3cc(C#N)c4nn(C)cc4c3)cc2s1)C1CC2CCCC(C1)N2 (centres unmarked) [Compound 252, 5-{2-[9-azabicyclo[3.3.1]non-3-yl(methyl)amino][1,3]thiazolo[4,5-c]pyridin-6-yl}-2-methyl-2H-indazole-7-carbonitrile] | ≤ 100
